Test results reported in article PMC11897524 (Frontiers in Pharmacology, 2025).

What was measured:
[1] = molecular target: BRD2 (Homo sapiens, UniProt P25440); assay: Binding affinity to BET and STAT family members
[2] = molecular target: BRDT (Homo sapiens, UniProt Q58F21); assay: Binding affinity to BET and STAT family members
[3] = molecular target: STAT2 (Homo sapiens, UniProt P52630); assay: Binding affinity to BET and STAT family members
[4] = molecular target: STAT4 (Homo sapiens, UniProt Q14765); assay: Binding affinity to BET and STAT family members
Sequence of STAT4 (Q14765 whole entry): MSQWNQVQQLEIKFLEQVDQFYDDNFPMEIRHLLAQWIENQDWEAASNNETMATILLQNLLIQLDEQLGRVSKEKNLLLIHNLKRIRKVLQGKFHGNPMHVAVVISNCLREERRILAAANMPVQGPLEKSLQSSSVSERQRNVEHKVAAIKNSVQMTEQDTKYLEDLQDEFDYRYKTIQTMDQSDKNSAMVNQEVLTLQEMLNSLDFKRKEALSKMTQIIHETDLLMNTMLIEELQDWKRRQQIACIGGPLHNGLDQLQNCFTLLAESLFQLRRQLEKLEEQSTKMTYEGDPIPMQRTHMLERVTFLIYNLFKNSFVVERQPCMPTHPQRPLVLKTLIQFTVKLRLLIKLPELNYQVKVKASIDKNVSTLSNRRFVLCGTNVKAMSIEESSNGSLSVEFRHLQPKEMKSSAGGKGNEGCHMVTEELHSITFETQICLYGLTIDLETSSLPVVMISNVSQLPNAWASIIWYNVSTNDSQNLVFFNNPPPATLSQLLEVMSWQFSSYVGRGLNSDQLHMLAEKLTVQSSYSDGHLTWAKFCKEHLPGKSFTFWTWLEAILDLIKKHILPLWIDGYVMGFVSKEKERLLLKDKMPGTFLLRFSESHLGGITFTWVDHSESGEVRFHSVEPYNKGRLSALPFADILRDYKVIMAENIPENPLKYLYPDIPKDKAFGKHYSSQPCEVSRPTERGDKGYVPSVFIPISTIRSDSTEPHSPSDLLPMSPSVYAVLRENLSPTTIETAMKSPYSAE

[5] = system: 769-P cells; assay: MTT cytotoxicity assay; format: cell-based; details: Homo sapiens, cell growth, 48 h treatment, read-out: IC50 (μM) ± SD 769-P
Procedure: (§1) Human normal renal cortical proximal tubular epithelial cell line HK-2 and human renal carcinoma cell lines CAKI-2, SLR-23, 769-P, A704 and RCC4 were previously purchased from the American Type Culture Collection (ATCC, Manassas, VA, USA) or the European Collection of Cell Cultures (ECACC, Salisbury, United Kingdom). HK2, A704, and RCC4 cells were maintained in high glucose DMEM supplemented with 10% FBS and 1% penicillin/streptomycin. SLR-23 and […] cells were cultured in RPMI-1640 medium with 10% FBS and 1% penicillin/streptomycin. CAKI-2 cells were maintained in McCoy’s 5A medium supplemented with 10% FBS and 1% penicillin/streptomycin. All the cell lines were cultured at 37°C in a humidified atmosphere of 5% CO2 and 95% air.
(§2) The effect of hit compounds on cytotoxicity was determined as previously reported ([Ding et al., 2020]). In brief, cells treated with the tested compounds were added with MTT reagent to form formazan crystals, and then the optical density (OD) values at 570 nm were determined after the crystals were dissolved in DMSO. […] Next, the values of IC50 of the selected compounds against more RCC cell lines were determined. The 5 × 10^3 cells in 100 μL culture medium were injected into each well of a 96-well plate and cultured overnight. Add different concentrations of compounds and incubate for 48 h. Then 100 μL of MTT (0.5 mg/mL) solution was added to the 96-well plate and maintained at 37°C for 4 h. Finally, 200 μL of DMSO was added and shaken for 10 min. The OD values at 570 nm were determined by a Synergy 4 microplate reader.

[6] = system: A704 cells; assay: MTT cytotoxicity assay; format: cell-based; details: Homo sapiens, cell growth, 48 h treatment, read-out: IC50 (μM) ± SD A704
Procedure: as §1, §2

[7] = system: HK-2 normal renal cortical proximal tubular epithelial cells; assay: MTT cytotoxicity assay; format: cell-based; details: Homo sapiens, Epithelial cell, normal cell line, 48 h treatment, read-out: IC50 (μM) ± SD HK-2
Procedure: as §1, §2

[8] = system: RCC4 cells; assay: MTT cytotoxicity assay; format: cell-based; details: Homo sapiens, cell growth, 48 h treatment, read-out: IC50 (μM) ± SD RCC4
Procedure: as §1, §2

[9] = system: SLR-23 cells; assay: MTT cytotoxicity assay; format: cell-based; details: Homo sapiens, cell growth, 48 h treatment, read-out: IC50 (μM) ± SD SLR-23
Procedure: as §1, §2

[10] = system: STAT3 phosphorylation; assay: Western blot of phosphorylated STAT3 in CAKI-2 cells; format: cell-based, human; details: 100 nM, 24 h
Procedure: (§3) For the assessment of protein expression levels, Western blot analysis was conducted following a standardized protocol ([Zhou et al., 2022]). The CAKI-2 cells were initially rinsed with PBS to remove any residual culture medium. Subsequently, cells were lysed using a RIPA buffer supplemented with 1 mM phenylmethylsulfonyl fluoride (PMSF), and the lysate was incubated on ice for a duration of 1 h. The lysate was centrifuged at a speed of 13,000 rpm for 30 min at 4°C. Protein concentrations were quantified using a BCA protein assay kit (Beyotime, Shanghai, China), ensuring equal protein loading for each sample. Samples were then resolved by SDS-PAGE and transferred onto a polyvinylidene difluoride (PVDF) membrane. Subsequently, the membrane was blocked with 3% BSA in PBS at room temperature for 2 h and incubated overnight with the corresponding antibody at 4°C. After washing to remove unbound primary antibodies, the membrane was incubated with horseradish peroxidase (HRP)-conjugated secondary antibodies for a period of 1 h at room temperature. The specific protein bands were visualized using ECL detection system (Tanon, Shanghai, China), and the band intensities were quantified using ImageJ software.

[11] = system: c-myc mRNA and Ki67 mRNA; assay: RT-qPCR on xenograft tumor tissues; format: in vivo, BALB/c nude mice; details: xenograft tumor tissue
Procedure: This method was performed as previously reported. Briefly, the CAKI-2 cells were seeded into 6-well plates and cultured overnight, and treated with different concentrations of BST-4 for 24 h. RNA was extracted from cells and tissues using Trizol reagent and reverse transcribed using PrimeScriptRTase. cDNA was used for RT-qPCR SYBR Green assays (Takara). The relative levels of c-myc mRNA were calculated as [(c-myc mRNA in the treatment group)/(β-actin mRNA in the treatment group)]/[(c-myc mRNA in the control group)/(β-actin mRNA in the control group).
To further investigate the in vivo effects of BST-4, 6–8 weeks male BALB/c nude mice were obtained by Changzhou Cavens Experimental Animal Co., Ltd. (Changzhou, China). The mice were acclimatized to the laboratory environment for a week before the experiment. The housing conditions were maintained at a temperature of 22°C ± 2°C, a relative humidity of 50%–60%, and a 12-h light/dark cycle. 0.1 mL of CAKI-2cell suspension (1 × 10⁶ cells) was subcutaneously injected into the right flank of each mouse. […] The vehicle group was injected with a vehicle solution consisting of 5% DMSO and PBS. The tumor volume of mice was measured every 2 days and calculated according to the formula: (c × c × d)/2, where c and d represent the minimum diameter and maximum diameter, respectively. […]

[12] = system: p-STAT3 and c-myc protein; assay: Western blot on xenograft tumor tissues; format: in vivo, BALB/c nude mice; details: xenograft tumor tissue
Procedure: as §3, with “After washing to remove unbound primary antibodies, the membrane was incubated with horseradish peroxidase (HRP)-conjugated secondary antibodies for a period of 1 h at room temperature.” left out
To further investigate the in vivo effects of BST-4, 6–8 weeks male BALB/c nude mice were obtained by Changzhou Cavens Experimental Animal Co., Ltd. (Changzhou, China). […] The tumor volume of mice was measured every 2 days and calculated according to the formula: (c × c × d)/2, where c and d represent the minimum diameter and maximum diameter, respectively. […]

[13] = molecular target: STAT3 (Homo sapiens, UniProt P40763); assay: Microscale thermophoresis (MST) assay; format: binding; design: purchased Abcam
Sequence of STAT3 (P40763 whole entry): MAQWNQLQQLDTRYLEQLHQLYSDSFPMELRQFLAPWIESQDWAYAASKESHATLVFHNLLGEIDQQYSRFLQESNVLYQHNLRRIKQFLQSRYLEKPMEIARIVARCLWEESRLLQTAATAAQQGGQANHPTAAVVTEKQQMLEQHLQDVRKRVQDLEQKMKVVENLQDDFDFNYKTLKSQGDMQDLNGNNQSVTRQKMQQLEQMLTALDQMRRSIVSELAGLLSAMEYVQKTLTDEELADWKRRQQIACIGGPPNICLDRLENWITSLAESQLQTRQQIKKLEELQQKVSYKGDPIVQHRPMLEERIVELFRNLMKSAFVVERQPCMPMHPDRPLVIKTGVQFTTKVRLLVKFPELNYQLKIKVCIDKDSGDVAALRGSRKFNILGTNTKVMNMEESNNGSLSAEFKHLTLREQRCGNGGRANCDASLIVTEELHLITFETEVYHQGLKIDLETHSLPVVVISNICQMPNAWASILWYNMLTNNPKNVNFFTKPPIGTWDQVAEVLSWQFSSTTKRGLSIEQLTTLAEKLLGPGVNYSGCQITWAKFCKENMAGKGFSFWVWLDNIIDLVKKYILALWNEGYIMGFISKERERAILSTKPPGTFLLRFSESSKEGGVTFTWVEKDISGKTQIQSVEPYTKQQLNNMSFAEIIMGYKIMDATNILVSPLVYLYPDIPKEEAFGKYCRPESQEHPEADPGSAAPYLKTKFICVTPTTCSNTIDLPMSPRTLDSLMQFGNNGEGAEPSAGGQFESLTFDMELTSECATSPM
Procedure: The MST experiments were performed using the Monolith NT.115 instrument. BRD4 and STAT3 proteins were labeled with the Lys labeling kit at the final concentration of 100 nM. The compounds, previously suspended in 100% DMSO, were diluted in a buffer containing 20 mM Tris·HCl (pH 7.5), 100 mM NaCl, and 3 mM DTT, achieving a final DMSO concentration of 5%. The compounds were gradient-diluted in 1:1 dilution and starting from 100 μM. The samples were loaded into MST-standard glass capillaries. All the measurements were performed in triplicate using automatically assigned 50% MST power and 20% LED power. Data analysis was performed using GraphPad Prism 7.0 software.

Sequence of STAT2 (P52630 whole entry): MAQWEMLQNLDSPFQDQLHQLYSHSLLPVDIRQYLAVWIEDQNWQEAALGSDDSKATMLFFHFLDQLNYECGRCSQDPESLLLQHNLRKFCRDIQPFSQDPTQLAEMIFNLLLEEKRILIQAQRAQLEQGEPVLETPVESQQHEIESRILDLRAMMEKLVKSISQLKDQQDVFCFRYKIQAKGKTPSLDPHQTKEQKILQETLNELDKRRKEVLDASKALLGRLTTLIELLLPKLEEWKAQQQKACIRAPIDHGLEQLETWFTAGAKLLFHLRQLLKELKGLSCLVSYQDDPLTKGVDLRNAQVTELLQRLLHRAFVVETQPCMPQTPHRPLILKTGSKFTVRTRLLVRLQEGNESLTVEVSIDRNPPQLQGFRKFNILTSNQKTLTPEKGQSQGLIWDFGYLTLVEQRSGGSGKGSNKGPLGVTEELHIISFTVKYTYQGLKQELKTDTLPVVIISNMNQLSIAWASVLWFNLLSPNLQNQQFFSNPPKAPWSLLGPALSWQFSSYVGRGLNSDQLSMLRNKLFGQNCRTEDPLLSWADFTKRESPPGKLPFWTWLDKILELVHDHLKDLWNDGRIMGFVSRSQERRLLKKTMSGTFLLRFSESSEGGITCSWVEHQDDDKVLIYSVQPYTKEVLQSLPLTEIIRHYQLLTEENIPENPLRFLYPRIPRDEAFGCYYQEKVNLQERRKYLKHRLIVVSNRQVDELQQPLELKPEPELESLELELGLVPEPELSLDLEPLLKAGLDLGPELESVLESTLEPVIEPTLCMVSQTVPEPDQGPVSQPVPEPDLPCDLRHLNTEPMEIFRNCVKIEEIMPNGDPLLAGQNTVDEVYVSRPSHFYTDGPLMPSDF
Sequence of BRD2 (P25440 whole entry): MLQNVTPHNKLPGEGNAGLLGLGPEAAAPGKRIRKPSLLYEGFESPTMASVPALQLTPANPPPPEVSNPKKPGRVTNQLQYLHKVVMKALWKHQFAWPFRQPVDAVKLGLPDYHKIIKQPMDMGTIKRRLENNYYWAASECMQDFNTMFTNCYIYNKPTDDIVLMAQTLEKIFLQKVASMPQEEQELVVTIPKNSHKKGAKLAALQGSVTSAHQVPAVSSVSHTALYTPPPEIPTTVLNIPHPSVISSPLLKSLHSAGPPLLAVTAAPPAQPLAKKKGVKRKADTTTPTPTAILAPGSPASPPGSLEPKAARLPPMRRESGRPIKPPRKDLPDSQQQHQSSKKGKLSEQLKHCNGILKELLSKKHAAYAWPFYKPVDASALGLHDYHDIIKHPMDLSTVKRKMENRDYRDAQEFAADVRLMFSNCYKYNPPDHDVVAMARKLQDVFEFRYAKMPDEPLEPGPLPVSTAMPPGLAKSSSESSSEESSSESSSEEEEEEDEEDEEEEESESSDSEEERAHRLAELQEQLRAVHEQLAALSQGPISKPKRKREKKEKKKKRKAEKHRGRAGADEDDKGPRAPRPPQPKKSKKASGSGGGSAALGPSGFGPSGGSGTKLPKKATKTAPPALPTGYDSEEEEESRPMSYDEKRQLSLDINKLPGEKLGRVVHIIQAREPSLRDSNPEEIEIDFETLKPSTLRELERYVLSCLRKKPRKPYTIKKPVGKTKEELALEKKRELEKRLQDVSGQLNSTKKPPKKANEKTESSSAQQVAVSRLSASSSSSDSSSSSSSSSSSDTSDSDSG

Kd [1]: > 10000 nM
Kd [2]: > 10000 nM
Kd [3]: > 10000 nM
Kd [4]: > 10000 nM
STAT3 binding affinity relative to CJ-1383 ([13]; Kd ratio vs CJ-1383, MST): 211 fold
Kd ([13]; MST): 4.28 ± 0.59 nM
Compound: CCS(=O)(=O)Cc1cnc(Oc2c(F)cc(F)cc2OCCCCOc2ccc(/C=C/c3cc(OC)cc(OC)c3)cc2)c(-c2cc(C)c3c(=O)[nH]ccn23)c1 [BST-4]
IC50 [5]: 1.68 ± 0.32 µM
IC50 [6]: 1.07 ± 0.18 µM
IC50 [7]: > 10 µM
IC50 [8]: 2.19 ± 0.64 µM
IC50 [9]: 1.52 ± 0.43 µM
STAT3 phosphorylation in CAKI-2 cells [10]: significantly decreased
Ki67 mRNA expression level in tumor tissues in vivo [11]: downregulated
c-myc mRNA expression level in tumor tissues in vivo [11]: downregulated
c-myc protein expression level in tumor tissues [12]: significantly downregulated
p-STAT3 protein expression level in tumor tissues [12]: significantly downregulated
